The values that follow come from PMC9738565, “N1-Benzyl Tryptamine Pan-SHIP1/2 Inhibitors: Synthesis and Preliminary Biological Evaluation as Anti-Tumor Agents” (Molecules, 2022).

The structures appear in SMILES notation. Like-named read-outs stand apart in the source and are kept apart here. Marks after values point to notes of the source that are not given here.

Data set [1] concerns recombinant human truncated SHIP1 (tSHIP1). The experiment in a line: Malachite green phosphatase release assay, SHIP1. The following applies: for Malachite (250 µM) % Inhib. SHIP1: 250 µM compound; for Malachite (500 µM) % Inhib. SHIP1: 500 µM compound; for activity against SHIP1 (in words): summary of Table 1. It counts as biochemical. How it is done: These compounds were then tested for their activity against the two SHIP paralogs, SHIP1 and SHIP2 in the colorimetric malachite green phosphatase assay. The malachite green assay detects the amount of free phosphate produced from enzymatic reactions with SHIP and an inositol phospholipid substrate. The Malachite assay is useful for ruling out compounds that are fluorescent or have aggregation issues and is inexpensive, so it was utilized as the primary screen even though it is not as sensitive as other assays.
(§1) 4.7. Malachite Green Phosphatase Release Assays
(§2) Malachite green assays to monitor phosphatase release (Echelon Biosciences) were performed with recombinant human truncated SHIP1 (tSHIP1) and SHIP2 (Echelon Biosciences). Serial dilutions of the compounds dissolved in DMSO were added to the recombinant enzymes diluted in reaction buffer Rx (50 mM Hepes pH 7.4, 150 mM NaCl, 1 mM MgCl2, 0.25 mM EDTA) in triplicate reaction wells in 96-well plates. After incubation for 2 min at room temperature, 2.5 µL of 1 mM phosphatidylinositol 3,4,5-trisphosphate diC8 (PI(3,4,5)P3-diC8, Echelon Biosciences) was added to each reaction to a final concentration of 100 µM in a final volume of 25 µL /well. Following a 20 min incubation at 37 °C, 100 µL of Malachite Green solution (Echelon Biosciences) was added to each well and the plates were incubated at room temperature in the dark for 15 min. Plates were then read at 620 nm on a plate reader (Synergy 2, BioTek, Santa Clara, CA, USA). In addition, 3α-Aminocholestane, a known SHIP1 inhibitor, and AS1949490, a known SHIP2 inhibitor, were used as positive controls.

Data set [2] deals with T1, SHIP2 (Homo sapiens, UniProt O15357).
T1 construct: purchased Echelon Biosciences
T1 sequence (O15357 1-1258): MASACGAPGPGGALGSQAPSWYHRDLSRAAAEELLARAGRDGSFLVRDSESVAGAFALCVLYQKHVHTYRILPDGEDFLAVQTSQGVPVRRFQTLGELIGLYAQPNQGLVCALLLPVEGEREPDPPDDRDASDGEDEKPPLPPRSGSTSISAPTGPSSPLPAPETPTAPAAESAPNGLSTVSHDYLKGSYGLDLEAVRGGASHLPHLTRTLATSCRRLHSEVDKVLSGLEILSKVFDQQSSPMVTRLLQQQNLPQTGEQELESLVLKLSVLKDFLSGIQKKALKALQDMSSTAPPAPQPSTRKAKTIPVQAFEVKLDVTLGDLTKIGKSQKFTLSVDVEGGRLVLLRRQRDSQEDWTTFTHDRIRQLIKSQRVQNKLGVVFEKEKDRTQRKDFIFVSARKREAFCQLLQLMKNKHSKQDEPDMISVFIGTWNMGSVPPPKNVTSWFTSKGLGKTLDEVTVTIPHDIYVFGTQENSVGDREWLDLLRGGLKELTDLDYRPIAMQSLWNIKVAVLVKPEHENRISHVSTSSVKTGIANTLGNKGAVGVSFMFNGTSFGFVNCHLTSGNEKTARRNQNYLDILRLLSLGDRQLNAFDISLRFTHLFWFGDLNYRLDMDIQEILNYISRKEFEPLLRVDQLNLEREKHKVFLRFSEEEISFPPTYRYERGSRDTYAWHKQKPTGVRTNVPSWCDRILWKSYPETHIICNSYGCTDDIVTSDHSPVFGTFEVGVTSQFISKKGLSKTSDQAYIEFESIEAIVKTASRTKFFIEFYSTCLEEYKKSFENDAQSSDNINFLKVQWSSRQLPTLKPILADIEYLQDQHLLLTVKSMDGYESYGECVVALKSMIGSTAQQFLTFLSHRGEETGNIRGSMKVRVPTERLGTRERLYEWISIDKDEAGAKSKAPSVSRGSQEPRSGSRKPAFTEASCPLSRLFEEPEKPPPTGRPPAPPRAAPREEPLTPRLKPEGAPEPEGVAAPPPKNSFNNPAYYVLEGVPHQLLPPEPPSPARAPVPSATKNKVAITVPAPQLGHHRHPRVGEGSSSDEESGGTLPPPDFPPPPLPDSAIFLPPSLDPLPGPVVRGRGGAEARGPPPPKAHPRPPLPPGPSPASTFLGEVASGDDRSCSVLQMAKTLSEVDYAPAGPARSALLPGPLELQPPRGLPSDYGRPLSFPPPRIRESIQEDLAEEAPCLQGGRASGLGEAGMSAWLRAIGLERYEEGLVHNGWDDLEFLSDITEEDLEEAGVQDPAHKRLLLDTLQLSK
Put plainly: Malachite green phosphatase release assay, SHIP2. It counts as biochemical. The following applies: for inhibition at 250 µM: read-out: Malachite (250 µM) % Inhib. SHIP2; for inhibition at 500 µM: read-out: Malachite (500 µM) % Inhib. SHIP2; for activity against SHIP2 (in words): summary of Table 1. How it is done:
(§3) These compounds were then tested for their activity against the two SHIP paralogs, SHIP1 and SHIP2 in the colorimetric malachite green phosphatase assay. The malachite green assay detects the amount of free phosphate produced from enzymatic reactions with SHIP and an inositol phospholipid substrate.
as §1, §2

Data set [3] concerns the target T2, tSHIP1 (Homo sapiens, UniProt Q92835).
T2 sequence (Q92835 399-715 limits assumed): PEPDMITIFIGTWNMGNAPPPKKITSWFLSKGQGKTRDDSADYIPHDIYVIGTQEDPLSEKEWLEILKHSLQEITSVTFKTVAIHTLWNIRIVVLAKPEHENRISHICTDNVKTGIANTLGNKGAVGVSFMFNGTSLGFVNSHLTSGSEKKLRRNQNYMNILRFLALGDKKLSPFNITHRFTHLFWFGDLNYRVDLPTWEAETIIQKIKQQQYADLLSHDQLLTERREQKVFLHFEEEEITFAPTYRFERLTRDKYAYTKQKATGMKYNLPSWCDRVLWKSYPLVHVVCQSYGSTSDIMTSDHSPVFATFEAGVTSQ
The experiment in a line: Fluorescence Polarization (FP) assay for the detection of PI(3,4)P2, SHIP1. It counts as biochemical. The following applies: FP assay; read-out: IC50 SHIP1 (Via FP). As for the experimental part:
as §3
4.8. Fluorescence Polarization (FP) Assays for the Detection of PI(3,4)P2
The FP Assay for the detection of PI(3,4)P2 (Echelon Biosciences) was performed using tSHIP1 [48] with serial dilutions of the tryptamines in DMSO according to the manufacturer’s recommendation as previously described. […] 40 µL of 4 µM PIP3 (PI(3,4,5)P3-diC8) in Rx buffer is added to each reaction and incubated at 37 °C for 20 min, followed by heat inactivation for 3 min at 95 °C. Reactions were spun down briefly and 10 µL of each reaction was added in 6 replicate wells to a black 384-well plate provided with the FP kit. 10 µL of 1X reconstituted Detector (a phosphoinositide binding protein) in PBS is then added to each well, followed by 5 µL of 1X freshly diluted Probe (in PBS, a fluorophore-labeled phosphoinositide) protected from light. Assay plates are gently tapped to mix, the plate is sealed and spun down briefly and the reaction is allowed to equilibrate for 60 min at room temperature protected from light.
(In fluorescence polarisation assays a small probe gives low polarisation when free and higher when bound to something large.)

Data set [4] deals with T1, SHIP2. The experiment in a line: Fluorescence Polarization (FP) assay for the detection of PI(3,4)P2, SHIP2. It counts as biochemical. The following applies: read-out: IC50 SHIP2 (via FP).
Data set [5] is described as follows: Behaviour of compound when mixed with assay buffer. It counts as physicochemical. How it is done: Compounds with modifications of the primary amine of the tryptamine were also tested. […] While SHIP1 agonists may have applications as anti-inflammatories, the agonist activity of 15 was weak and therefore was not further pursued. […] While these analogs may present a path towards selective inhibitors of SHIP2, these compounds will not be useful in determining the effects of pan-SHIP inhibition in tumor models.

By IC50 is commonly meant the concentration that inhibits the measured activity by half. Turning to `CSc1ccc2c(c1)c(CCN)c(C)n2Cc1ccc(Cl)cc1.Cl` [Compound 7b, 2-(1-(4-Chlorobenzyl)-2-methyl-5-(methylthio)-1H-indol-3-yl)ethanaminium chloride], in data set [1], the “Malachite (250 µM) % Inhib. SHIP1” value is given as 0%, the “Malachite (500 µM) % Inhib. SHIP1” value is on record as 33% and the “activity against SHIP1 (in words)” value is “significant activity”. In addition, the inhibition at 250 µM in data set [2] (250 µM compound) was found to be 18%. Besides, the inhibition at 500 µM in data set [2] (500 µM compound) is 49%. For the same compound, in data set [2], the “activity against SHIP2 (in words)” value is “significant activity”. In addition, the IC50 in data set [3] is 11 µM.

With `CSc1ccc2c(c1)c(CCN)c(C)n2Cc1ccc(Br)cc1.Cl` [Compound 7c, 2-(1-(4-Bromobenzyl)-2-methyl-5-(methylthio)-1H-indol-3-yl)ethanaminium chloride], in data set [1], the “Malachite (250 µM) % Inhib. SHIP1” value came out at 3% and the “Malachite (500 µM) % Inhib. SHIP1” value turned out to be 47%. In addition, the inhibition at 250 µM in data set [2] (250 µM compound) was 30%. Moreover, the inhibition at 500 µM in data set [2] (500 µM compound) is 38%. The half-maximal inhibitory concentration (IC50) in data set [3] worked out at 51 µM. Besides, the IC50 in data set [4] stood at 58 µM.

As for `CSc1ccc2c(c1)c(CCN)c(C)n2Cc1ccccc1.Cl` [Compound 7e, 2-(1-Benzyl-2-methyl-5-(methylthio)-1H-indol-3-yl)ethanaminium chloride], in data set [1], the “Malachite (250 µM) % Inhib. SHIP1” value was 0%, the “Malachite (500 µM) % Inhib. SHIP1” value is given as 40% and the “activity against SHIP1 (in words)” value is listed as “active analog”. In addition, the inhibition at 250 µM in data set [2] (250 µM compound) was 28%. For the same compound, the inhibition at 500 µM in data set [2] (500 µM compound) is 39%. For the same compound, the “activity against SHIP2 (in words)” value in data set [2] is reported as “active analog”. Besides, in data set [3], the 50% inhibitory concentration (IC50) is 13 µM. Also, the IC50 in data set [4] is 12 µM.

Consider `CSc1ccc2[nH]c(C)c(CCN)c2c1.Cl` [Compound 7f, 2-(2-Methyl-5-(methylthio)-1H-indol-3-yl)ethanaminium chloride], for which, in data set [1], the “Malachite (250 µM) % Inhib. SHIP1” value amounted to 0%, the “Malachite (500 µM) % Inhib. SHIP1” value turned out to be 0% and the “activity against SHIP1 (in words)” value is on record as “virtually no activity”. For the same compound, in data set [2], the inhibition at 250 µM is 0%, the inhibition at 500 µM stood at 2% and the “activity against SHIP2 (in words)” value is listed as “virtually no activity”.

As for `CNCCc1c(C)n(Cc2ccccc2Cl)c2ccc(SC)cc12` [Compound 13, (2{1-[(2-Chlorophenyl)methyl]-2-methyl-5-(methylsulfanyl-1H-indol-3-yl}ethyl)methylaminium chloride], in data set [1], the “Malachite (250 µM) % Inhib. SHIP1” value worked out at 0%, the “Malachite (500 µM) % Inhib. SHIP1” value was found to be 9% and the “activity against SHIP1 (in words)” value is “no inhibition”. Also, the inhibition at 250 µM in data set [2] (250 µM compound) worked out at 14%. For the same compound, in data set [2] (500 µM compound), the inhibition at 500 µM is 38%.

`CSc1ccc2c(c1)c(CCN(C)C)c(C)n2Cc1ccccc1Cl` [Compound 14, (2{1-[(2-Chlorophenyl)methyl]-2-methyl-5-(methylsulfanyl-1H-indol-3-yl}ethyl)dimethylaminium chloride]: in data set [1], the “Malachite (250 µM) % Inhib. SHIP1” value amounted to 0%, the “Malachite (500 µM) % Inhib. SHIP1” value was 5% and the “activity against SHIP1 (in words)” value was “inactive”. The inhibition at 250 µM in data set [2] (250 µM compound) is 0%. Besides, in data set [2] (500 µM compound), the inhibition at 500 µM is 6%. Also, the “activity against SHIP2 (in words)” value in data set [2] is “inactive”.

Turning to `CSc1ccc2c(c1)c(CCNS(C)(=O)=O)c(C)n2Cc1ccccc1Cl` [Compound 15, N-(2{1-[(2-Chlorophenyl)methyl]-2-methyl-5-(methylsulfanyl)-1H-indol-3-yl}ethyl) methanesulfonamide], in data set [1], the “Malachite (250 µM) % Inhib. SHIP1” value is recorded as −10%, the “Malachite (500 µM) % Inhib. SHIP1” value was −27% and the “activity against SHIP1 (in words)” value is listed as “weak agonist”.

Regarding `CSc1ccc2c(c1)c(CCNC(C)=O)c(C)n2Cc1ccccc1Cl` [Compound 16], in data set [1], the “Malachite (250 µM) % Inhib. SHIP1” value was found to be 25% ^a and the “Malachite (500 µM) % Inhib. SHIP1” value came to 0% ^a. The inhibition at 250 µM in data set [2] (250 µM compound) was determined as 0%. Also, the inhibition at 500 µM in data set [2] (500 µM compound) was found to be 0%. Also, the “solubility behaviour in buffer” value in data set [5] is “tended to precipitate when mixed with buffer”.

In the case of `CCNCCc1c(C)n(Cc2ccccc2Cl)c2ccc(SC)cc12` [Compound 17, (2{1-[(2-Chlorophenyl)methyl]-2-methyl-5-(methylsulfanyl-1H-indol-3-yl}ethyl)ethylaminium chloride], in data set [1], the “Malachite (250 µM) % Inhib. SHIP1” value was determined as 1%, the “Malachite (500 µM) % Inhib. SHIP1” value is 21% and the “activity against SHIP1 (in words)” value is given as “no inhibition”. For the same compound, the inhibition at 250 µM in data set [2] (250 µM compound) came out at 13%. In addition, the inhibition at 500 µM in data set [2] (500 µM compound) is 47%.
